Legend:
Gdx-Clo = system: T1, Gdx-Clo; assay: […]-Gdm+ uptake and SSM electrophysiology, proteoliposomes; format: biochemical, Clostridiales bacterium oral taxon 876; conditions: 20 µM 14C-Gdm+ or 1 mM (SSM); pH 7.5; labelled compound
T1 construct: gene HMPREF1982_00479; full-length; C-terminal His6 tag with LysC site, tag cleaved by LysC; expressed in E. coli C41(DE3); antiparallel homodimer

EmrE [1] = target: T2, EmrE (Escherichia coli, UniProt P23895); assay: SSM electrophysiology, proteoliposomes; format: biochemical; conditions: 1 mM; pH 7.5; reference compound for normalisation
T2 construct: full-length; N-terminal His6 tag with thrombin site; expressed in E. coli; homodimer; reconstituted in proteoliposomes
T2 sequence (P23895 whole entry): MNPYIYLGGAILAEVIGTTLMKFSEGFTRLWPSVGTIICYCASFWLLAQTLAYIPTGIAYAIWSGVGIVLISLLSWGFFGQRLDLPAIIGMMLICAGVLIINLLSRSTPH

EmrE [2] = target: T2, EmrE; assay: […]-methyl viologen uptake into proteoliposomes; format: biochemical; conditions: 7 µM 14C-methyl viologen; pH 7.5; labelled compound

T1 sequence (U2EQ00 entry or part of it): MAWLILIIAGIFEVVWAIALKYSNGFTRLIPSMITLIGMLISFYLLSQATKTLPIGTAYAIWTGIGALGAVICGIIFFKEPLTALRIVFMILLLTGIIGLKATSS

N=C(N)N [Gdm^+]
14C-Gdm+ uptake and SSM electrophysiology, proteoliposomes (Gdx-Clo): Gdx-Clo transports Gdm^+, but not methyl viologen

N=C(N)Nc1ccccc1 [phenylGdm^+]
SSM electrophysiology, proteoliposomes (EmrE [1]): methyl-, ethyl-, and phenylGdm^+ evoked increasingly larger currents

C[n+]1ccc(-c2cc[n+](C)cc2)cc1 [methyl viologen]
14C-methyl viologen uptake into proteoliposomes (EmrE [2]): EmrE transports methyl viologen, but not Gdm^+
